Test results published in patent publication US12611432B2 (priority 2017, dated 2026).

How the values were obtained:
[1] = system: PTEN KO orthotopic tumors; assay: FTY720 blockade of T cell recruitment in PTEN KO tumor-bearing mice; type: in vivo
Method: Survival endpoint was defined by the appearance of hemorrhagic abdominal ascites and/or decreased grooming, ambulation, or piloerection. Volume of all tumor experiments was calculated using caliper measurements at π/6×L×W×H, where L is length of longest axis of the tumor, and W and H are the perpendicular width and height, respectively.
For all in vivo experiments, CP1 was administered intra-urethrally on day 8 post-tumor injection. […]
The Ability of CP1 to Potentiate PD-1 Blockade is Partially Dependent on Increased TIL Recruitment To determine if CP1's ability to recruit lymphocytes into the tumor is necessary for its proven synergy with PD-1 blockade, fingolimod (FTY720), a sphingosine-1 phosphate mimetic that blocks egress of T cells from the lymph nodes into peripheral tissues, was administered. PTEN KO orthotopic tumor-bearing mice were treated with CP1 and anti-PD-1, with the addition of FTY720 administration beginning immediately before CP1 administration, to specifically block CP1-induced T cell infiltration into the tumor without inhibiting the quantity or function of the baseline TILs present in these tumors.

Myc-CaP cells = type: cell-based, murine; conditions: 1 μM mitoxantrone, live or heat killed CP1 MOI 10, 24 or 72 hours
Method: (a) LDH level, as a measure of cell death, from CP1 and Myc-CaP co-culture, performed in triplicates. (b-i) Myc-CaP cell were co-cultured with Mx, CP1(MOI 1), or MG1655 (MOI 1) (b, d, g) in normal media or (c, e, f, h, i) with gentamicin (+ G) added after 2 hours. (b, c) ICD was measured via HMGB1 (ELISA, 72 hours), ATP (luminescence assay, 72 hours), and calreticulin (flow cytometry, 24 or 72 hours), performed in biological triplicates, technical duplicates. (d-f) Caspase 3/7 activity (luminescence assay) was measured at (d, e) 6 hours or (f) 24 hours, (d) normalized to cell count (MTT assay), performed in sextuplicates. (g, h) Early stage apoptosis (Annexin V^+PI^-) and late stage apoptosis (Annexin V+PI+) were determined by flow cytometry after 24 hours, performed in triplicates. (i) Western blot analysis of phosphorylated and total MLKL, RIP1, RIP3, full length and cleaved PARP, and β-actin after 24 hours, performed in triplicates.
For indicated in vitro assays, CP1 was heat killed at 70° C. for 45 minutes. […] Additionally, supernatant was assessed for lactate dehydrogenase (LDH) levels as a measure of cell death (CytoTox 96 Non-Radioactive Cytotoxicity Assay, Promega). […] Cells counts were taken at the times of supernatant collection, which were frozen at −80° C. until use for quantifying secreted ATP (Bioluminescent Assay Kit, Sigma) and HMGB1 (ELISA, Tecan Trading).

[2] = system: castration-resistant prostate cancer (CRPC); conditions: monotherapy, patients with CRPC; cited from earlier work

Question: Which “tumor volume, mean” value [1] does the source give for `CCCCCCCCc1ccc(CCC(N)(CO)CO)cc1` [FTY720, Fingolimod] here?
Answer: 1394 mm^3

Question: Which “ICD markers: secreted HMGB1, secreted ATP, cell surface calreticulin” value (Myc-CaP cells) does the source give for `O=C1c2c(O)ccc(O)c2C(=O)c2c(NCCNCCO)ccc(NCCNCCO)c21` [mitoxantrone] here?
Answer: elevated

Question: Which “overall survival (OS)” value [2] does the source give for ipilimumab here?
Answer: no improvement in overall survival (OS)

Question: Which “overall survival (OS)” value [2] does the source give for nivolumab here?
Answer: no improvement in overall survival (OS)
